Laboratory results reported in US7763615B2, “Ecteinascidin analogs for use as antitumour agents” (priority 2001, dated 2010).
≈ marks a conversion by molar mass, not a printed value.

How the values were obtained:
H-MEC-1 = experiment: Inhibition of cells growth by colorimetric assay (SRB), H-MEC-1; assay type: cell-based; conditions: for TGI: H-MEC-1; for GI50 / CC50: Homo sapiens; for GI50: HMEC-1, H-MEC-1; for CC50: HMEC-1, read-out: LC50, H-MEC-1
Summary of the method: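 SRB colorimetric growth assay: 5×10^3 cells/well, 18 h attachment, 48 h continuous compound exposure at 10–10^−8 μg/ml in DMSO/EtOH/PBS. TCA fixation, SRB stain, OD 490 nm; triplicate wells, GI, TGI and LC derived.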

[1] = s9, 60 min, 1 μM
IGROV = experiment: cells; assay type: cell-based; conditions: for GI50 / CC50: Homo sapiens; for CC50: read-out: LC50, IGROV
Summary of the method: (§1)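 Human tumour cells seeded at 5×10^3 per well in RPMI 1640 10% FBS, attached 18 h, then exposed 48 h to samples from 10 to 10^−8 μg/ml in DMSO/EtOH/PBS. Growth measured by SRB staining after TCA fixation, OD 490 nm, triplicate wells; GI, TGI and LC derived.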

LOVO = experiment: cells; assay type: cell-based; conditions: for GI50 / CC50: Homo sapiens, LoVo; for CC50: read-out: LC50, LOVO; for TGI: LOVO
Summary of the method: as §1

LOVO-DOX = experiment: cells; assay type: cell-based; conditions: for GI50 / CC50: Homo sapiens; for GI50 / TGI: LOVO-DOX; for CC50: read-out: LC50, LOVO-DOX
Summary of the method: as §1

HT29 = experiment: cells; assay type: cell-based; conditions: for TGI: HT29; for GI50 / CC50: Homo sapiens; for GI50: HT-29, HT29; for CC50: HT-29, read-out: LC50, HT29
Summary of the method: as §1

MEL-28 = experiment: cells; assay type: cell-based; conditions: for GI50 / CC50: Homo sapiens; for GI50: SK-MEL-28, MEL-28; for CC50: SK-MEL-28, read-out: LC50, MEL-28; for TGI: MEL-28
Summary of the method: as §1

IGROV-ET = experiment: cells; assay type: cell-based; conditions: for GI50 / CC50: Homo sapiens; for GI50 / TGI: IGROV-ET; for CC50: read-out: LC50, IGROV-ET
Summary of the method: as §1

K562 = experiment: cells; assay type: cell-based; conditions: for GI50 / CC50: Homo sapiens; for GI50: K562, K562; for CC50: K562, read-out: LC50, K562; for TGI: K562
Summary of the method: as §1

PANC-1 = experiment: cells; assay type: cell-based; conditions: for GI50 / CC50: Homo sapiens; for GI50: PANC-1, PANC-1; for CC50: PANC-1, read-out: LC50, PANC-1; for TGI: PANC-1
Summary of the method: as §1

SK-BR3 = experiment: cells; assay type: cell-based; conditions: for GI50 / CC50: Homo sapiens; for GI50: SK-BR-3, SK-BR3; for CC50: SK-BR-3, read-out: LC50, SK-BR3; for TGI: SK-BR3
Summary of the method: as §1

LNCAP = experiment: cells; assay type: cell-based; conditions: for GI50 / CC50: Homo sapiens, LNCaP; for CC50: read-out: LC50, LNCAP; for TGI: LNCAP
Summary of the method: as §1

A549 = experiment: cells; assay type: cell-based; conditions: for TGI: A549; for GI50 / CC50: Homo sapiens; for GI50: A549, A549, read-out: GI50; for CC50: A549, read-out: LC50, A549
Summary of the method: as §1

DU145 = experiment: cells; assay type: cell-based; conditions: for TGI: DU145; for GI50 / CC50: Homo sapiens; for GI50: DU-145, DU145; for CC50: DU-145, read-out: LC50, DU145
Summary of the method: as §1

[2] = system: NRK-52E, normal rat kidney cells; conditions: 24 h
[3] = system: FDC-P1, normal mouse myelogeous stem cells; conditions: 24 h
CYP3A4 = CYP3A4 (Homo sapiens, UniProt P08684); experiment: in vitro; conditions: CYP3A4 (% inhibition)
[4] = system: AML-12, normal mouse liver cells; conditions: 24 h
Protocol: In order to assess the cytotoxicity of the drugs to normal cells, we used 96 well plates plated at a density of 5000 cells per well (except for the FDC-P1 which were plated at 12,000 cells per well) with normal cell lines (ATCC, Table 1) maintained as per the directions of the ATCC: AML-12, normal mouse liver cells; NRK-52E, normal rat kidney cells; L8, normal rat skeletal muscle cells; FDC-P1, normal mouse myelogeous stem cells; and H9c2 (2-1), normal rat cardiac muscle cells. The cells in each plate were permitted to settle overnight before adding the test drug.
To each well (100 μl medium) 10 μl of drug in media was added at varying concentrations (1×10-10-0.01 mg/ml final concentration) and further incubated overnight at 37° C. with 5% CO2. After 24 h the following assays were performed. All experiments were repeated at least 3 times and were assayed in duplicate.
MTS assay (CellTiter 96 aqueous) was performed according to the manufacturer's (Promega) directions (for all cell types). Cell viability (mitochondrial activity) is determined via enzymatic conversion of the formazan substrate.

[5] = system: L8, normal rat skeletal muscle cells; conditions: 24 h
[6] = system: H9c2 (2-1), normal rat cardiac muscle cells; conditions: 24 h
CYP2D6 = CYP2D6 (Homo sapiens, UniProt P10635); experiment: in vitro; conditions: CYP2D6 (% inhibition)
Protocol: For CYP2D6 inhibition assay, the compound are tested at 10 μM in duplicate with a 0.25% final concentration of both methanol and acetonitrile in presence of the fluorescent substrate AMMC (3-[2-N,N-diethyl-N-methylammonium)ethyl]-7-methoxy-4-methylcoumarin) at the concentration of 1.5 μM). The conversion of the AMMC in AHMC (3-[2-N,N-diethyl-N-methylammonium)ethyl]-7-hydroxy-4-methylcoumarin) is determined spectrofluorimetry after incubation with the enzyme during 450 min at 37° C.
For both assays, the fluorescent intensity measured at t=0 is subtracted from that measured after the appropriate incubation time. The ratio of signal-to-noise is calculated by comparing the fluorescence in incubations containing the test compound to the control samples containing the same solvent vehicle. The percent of control activity is calculated and reported as percent inhibition.

(HEPG2) = conditions: human, 24 h, 30 μM
physchem [7] = conditions: pH 7.4, aqueous buffer, Solubility Dulbecco's PBS pH 7.4
physchem [8] = conditions: pH 7.4, log D n-Octanol-Dulbecco's PBS pH 7.4
Protocol: The measurement of partition coefficient was evaluated based on a miniaturized shake-flask procedure. Buffer (Dulbecco's PBS, pH 7.40) was used as the aqueous phase. The tested compound was dissolved in DMSO, at the concentration of 100 μM. The final DMSO concentration (1%.) during the octanol-buffer partitioning are very low to avoid bias on the partitioning. The amount of compound in the buffer phase was determined by HPLC with photodiode array detection after an equilibration phase of 60 min. The amount of compound in the octanol phase is calculated by subtraction of the amount of compound in buffer from the total amount of compound, which is determined from a calibration sample.
Log D is calculated as the Log10 of the amount of compound in the octanol phase divided by the amount of compound in the buffer phase. The effective range of the log D microassay is approximately −0.5 to +4.5.

SK-OV3 = experiment: Inhibition of cells growth by colorimetric assay (SRB), SK-OV3; assay type: cell-based; conditions: for GI50 / CC50: Homo sapiens; for GI50: SK-OV-3, SK-OV3; for CC50: SK-OV-3, read-out: LC50, SK-OV3; for TGI: SK-OV3
Summary of the method: as §1

Chain of CYP3A4 (P08684 whole entry): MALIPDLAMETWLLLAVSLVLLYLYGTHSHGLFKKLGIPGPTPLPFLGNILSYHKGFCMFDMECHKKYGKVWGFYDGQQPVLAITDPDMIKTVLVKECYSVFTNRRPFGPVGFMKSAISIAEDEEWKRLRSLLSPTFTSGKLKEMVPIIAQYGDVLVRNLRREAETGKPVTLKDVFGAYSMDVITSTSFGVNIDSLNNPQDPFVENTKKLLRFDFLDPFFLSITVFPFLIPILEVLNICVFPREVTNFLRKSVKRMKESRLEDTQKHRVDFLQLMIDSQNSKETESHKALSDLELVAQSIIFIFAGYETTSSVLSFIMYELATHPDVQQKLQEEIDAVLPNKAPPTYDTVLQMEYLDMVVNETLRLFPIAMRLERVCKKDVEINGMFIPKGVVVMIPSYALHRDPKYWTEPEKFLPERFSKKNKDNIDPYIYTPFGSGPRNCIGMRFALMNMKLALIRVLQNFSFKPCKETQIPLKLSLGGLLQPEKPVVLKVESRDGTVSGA
Chain of CYP2D6 (P10635 whole entry): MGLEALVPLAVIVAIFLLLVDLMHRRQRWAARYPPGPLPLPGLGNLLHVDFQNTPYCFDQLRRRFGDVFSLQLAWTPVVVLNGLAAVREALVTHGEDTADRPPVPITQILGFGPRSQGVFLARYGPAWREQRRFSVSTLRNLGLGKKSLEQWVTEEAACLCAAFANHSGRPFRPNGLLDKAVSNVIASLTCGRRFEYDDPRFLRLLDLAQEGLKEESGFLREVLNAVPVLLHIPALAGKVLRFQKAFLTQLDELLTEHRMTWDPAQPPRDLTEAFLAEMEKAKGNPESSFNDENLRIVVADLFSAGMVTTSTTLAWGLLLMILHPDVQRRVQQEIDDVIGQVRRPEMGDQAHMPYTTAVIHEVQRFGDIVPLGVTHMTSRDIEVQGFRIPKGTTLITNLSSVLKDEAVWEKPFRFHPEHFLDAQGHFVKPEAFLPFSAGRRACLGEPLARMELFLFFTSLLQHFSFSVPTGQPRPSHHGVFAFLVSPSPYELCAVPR

SMILES: COc1c(C)cc2c(c1OC(=O)OC(C)(C)C)[C@@H]1C3[C@@H]4SC[C@]5(NCCc6c5[nH]c5ccccc65)C(=O)COC[C@@H](c5c6c(c(C)c(OC(C)=O)c54)OCO6)N3[C@@H](O)[C@H](C2)N1C (stereo partly shown) [Compound 46]
- TGI (H-MEC-1): 1.17E−06
- GI50 (H-MEC-1): 26 nM
- CC50 (H-MEC-1): ≥ 11700 nM
- Human Liver S9 Metabolic Stability (% remaining) [1]: 7 % remaining
- TGI (IGROV): 5.40E−08
- GI50 (IGROV): 23.2 nM
- CC50 (IGROV): 192 nM
- GI50 (LOVO): 15.6 nM
- CC50 (LOVO): ≥ 11700 nM
- TGI (LOVO): 5.70E−08
- GI50 (LOVO-DOX): 38.2 nM
- CC50 (LOVO-DOX): ≥ 11700 nM
- TGI (LOVO-DOX): 2.41E−07
- TGI (HT29): 1.22E−06
- GI50 (HT29): 44.4 nM
- CC50 (HT29): ≥ 11700 nM
- GI50 (MEL-28): 12.4 nM
- CC50 (MEL-28): 153 nM
- TGI (MEL-28): 4.07E−08
- GI50 (IGROV-ET): 49.5 nM
- CC50 (IGROV-ET): 7350 nM
- TGI (IGROV-ET): 1.29E−07
- GI50 (K562): 1220 nM
- CC50 (K562): 3380 nM
- TGI (K562): 2.02E−06
- GI50 (PANC-1): 41.1 nM
- CC50 (PANC-1): ≥ 11700 nM
- TGI (PANC-1): 2.58E−07
- GI50 (SK-BR3): 16.3 nM
- CC50 (SK-BR3): 412 nM
- TGI (SK-BR3): 5.84E−08
- GI50 (LNCAP): 0.117 nM
- CC50 (LNCAP): 17.5 nM
- TGI (LNCAP): 3.25E−09
- TGI (A549): 6.78E−08
- GI50 (A549): 33.3 nM
- CC50 (A549): 335 nM
- TGI (DU145): 4.61E−08
- GI50 (DU145): 6.48 nM
- CC50 (DU145): ≥ 11700 nM
- Kidney [2]: 4.01E−08
- Myelo [3]: 1.17E−07
- inhibition at 30 min, 10 µM (CYP3A4): 60%
- Liver [4]: 5.01E−08
- Skeletal [5]: 2.16E−07
- Heart [6]: 3.51E−08
- inhibition at 450 min, 10 µM (CYP2D6): 16%
- Cell Viability (% inhibition) ((HEPG2)): 33 % inhibition
- solubility (physchem [7]): 1.37 µM (≈ 1.19 µg/mL)
- logD at 60 min (physchem [8]): > 5
- GI50 (SK-OV3): 30.6 nM
- CC50 (SK-OV3): ≥ 11700 nM
- TGI (SK-OV3): 2.00E−06

SMILES: C=COC(=O)Oc1c(OC)c(C)cc2c1[C@@H]1C3[C@@H]4SC[C@]5(NCCc6c5[nH]c5ccccc65)C(=O)COC[C@@H](c5c6c(c(C)c(OC(C)=O)c54)OCO6)N3[C@@H](O)[C@H](C2)N1C (stereo partly shown) [Compound 47]
- TGI (H-MEC-1): 1.50E−07
- GI50 (H-MEC-1): 6.78 nM
- CC50 (H-MEC-1): ≥ 12100 nM
- Human Liver S9 Metabolic Stability (% remaining) [1]: 5 % remaining
- TGI (IGROV): 4.07E−08
- GI50 (IGROV): 10.6 nM
- CC50 (IGROV): 909 nM
- GI50 (LOVO): 6.26 nM
- CC50 (LOVO): ≥ 12100 nM
- TGI (LOVO): 4.64E−08
- GI50 (LOVO-DOX): 40.7 nM
- CC50 (LOVO-DOX): ≥ 12100 nM
- TGI (LOVO-DOX): 1.17E−07
- TGI (HT29): 1.21E−05
- GI50 (HT29): 38.8 nM
- CC50 (HT29): ≥ 12100 nM
- GI50 (MEL-28): 4.26 nM
- CC50 (MEL-28): 207 nM
- TGI (MEL-28): 1.00E−08
- GI50 (IGROV-ET): 69.7 nM
- CC50 (IGROV-ET): ≥ 12100 nM
- TGI (IGROV-ET): 3.61E−06
- GI50 (K562): 13.1 nM
- CC50 (K562): 6320 nM
- TGI (K562): 2.11E−06
- GI50 (PANC-1): 42.4 nM
- CC50 (PANC-1): ≥ 12100 nM
- TGI (PANC-1): 1.70E−06
- GI50 (SK-BR3): 7.56 nM
- CC50 (SK-BR3): 693 nM
- TGI (SK-BR3): 3.47E−08
- GI50 (LNCAP): 2.65 nM
- CC50 (LNCAP): 9.76 nM
- TGI (LNCAP): 5.08E−09
- TGI (A549): 7.50E−08
- GI50 (A549): 33.3 nM
- CC50 (A549): 1330 nM
- TGI (DU145): 2.06E−08
- GI50 (DU145): 5.46 nM
- CC50 (DU145): ≥ 12100 nM
- Kidney [2]: 3.15E−08
- Myelo [3]: 6.76E−08
- inhibition at 30 min, 10 µM (CYP3A4): 38%
- Liver [4]: 3.04E−08
- Skeletal [5]: 2.57E−08
- Heart [6]: 7.36E−08
- inhibition at 450 min, 10 µM (CYP2D6): 10%
- Cell Viability (% inhibition) ((HEPG2)): 18 % inhibition
- solubility (physchem [7]): < 1 µM
- logD at 60 min (physchem [8]): > 5
- GI50 (SK-OV3): 8.98 nM
- CC50 (SK-OV3): ≥ 12100 nM
- TGI (SK-OV3): 2.88E−07
